The values below come from US7687484B2, “Transporter enhanced corticosteroid activity” (priority 2006, dated 2010).

Entries after “also recorded” stand apart in the source; their conditions may differ. Read-outs that look alike come from different tables or passages of the source.

Experiment [1] addresses T1, Corticosteroid Binding Globulin (CBG), transcortin (Homo sapiens, UniProt P08185).
T1 sequence (P08185 23-405): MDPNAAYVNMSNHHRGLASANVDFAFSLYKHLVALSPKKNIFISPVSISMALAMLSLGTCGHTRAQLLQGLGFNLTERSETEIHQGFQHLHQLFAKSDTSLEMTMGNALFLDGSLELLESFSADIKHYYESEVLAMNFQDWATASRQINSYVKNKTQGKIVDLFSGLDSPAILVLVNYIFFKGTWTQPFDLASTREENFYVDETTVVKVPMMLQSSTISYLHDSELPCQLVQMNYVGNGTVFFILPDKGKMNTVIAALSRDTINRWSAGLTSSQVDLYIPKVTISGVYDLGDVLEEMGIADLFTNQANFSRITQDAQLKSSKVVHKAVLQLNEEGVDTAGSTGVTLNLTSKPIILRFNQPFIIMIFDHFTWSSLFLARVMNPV
The settings on record: cited from earlier work; for Class: CBG binding activity class; for Log 1/K: CBG binding affinity, literature data.

The target of a further experiment is T2, transcortin (CBG) (Homo sapiens, UniProt P08185).
T2 construct: from tissue; host or cells: plasma from venous blood of healthy volunteers, charcoal-treated, diluted 100-fold
T2 sequence (P08185 23-405): T1 sequence (P08185 23-405)
As to the kind of experiment: Binding of corticosteroids to transcortin: 3H-cortisol competition in charcoal-treated diluted plasma. How it is done: Experimental procedure: Venous blood was collected from healthy volunteers into heparin-containing tubes (5 Us/100 ml serum) and cells were separated from plasma by centrifugation (1500 g for 15 min). […] Charcoal-treated plasma was diluted 100-fold with binding buffer (10 mM Tris-HCl; 2 mM DTT (dithiotreitol); 1.5 mM EDTA; 0.02 M Na2MoO4; 10% Glycerol; pH 7.4) and was stored aliquoted at −80° C. […] The assay ingredients were mixed and the tubes were incubated for 1 hour on ice. At the end of the incubation, 0.2 ml of charcoal suspension (0.5% Norit A and 0.05% BSA) was added to each tube. The tubes were briefly agitated and incubated for an additional 10 min at 0° C. They were then centrifuged for 10 min at 15 000 g, and the same aliquots from the clear supernatants were quantitatively decanted into counting vials and combined with 3 ml of toluene-based scintillation fluid. […] Specific binding and IC50-values were calculated.

The subject of experiment [2] is forearms of human volunteers. As to the kind of experiment: Human vasoconstriction (blanching) testing. Set-up: key to Vasoconstriction activity (total score of 4 tests): sum of 4 tests, each 0 = normal skin to 4 = very intense pallor. Type of experiment: in vivo. How it is done:
Solutions of LE, HC and PRN (0.1 or 1 mM) alone, or mixtures of LE and HC (0.1+0.1 mM, or 1+1 mM), or LE and PRN (0.1+0.1 mM, or 1+1 mM) were prepared with a vehicle containing absolute ethanol and propylene glycol (9:1). […] After evaporation of ethanol (20 min), the films were applied to the forearms of human volunteers for 4 hours. Subsequently, the vasoconstriction reaction was read and judged by the appearance of pallor at various time intervals after the removal of the discs and films. The grading scale was as follows: 0, normal skin; 1, slight pallor; 2, pallor with at least two corners outlined; 3, even pallor with a clear outlined of the application sites; 4, very intense pallor. Due to the relatively high variations in response between the volunteers, a total score of 4 tests at each time point was taken for the activity evaluation.

The mark [3] stands for this setting: 3 nM 3H-cortisol, 1 hour on ice, plasma diluted 100-fold, read-out: IC50-values (nM) average ± SEM (n).
Where [4] appears, read: estimated, unpublished results Bodor, Kurucz 2006, read-out: CBG Est. IC50.

The term IC50 denotes the concentration at which inhibition is half-maximal.

`C[C@@H]1C[C@@]2(C)C(=CC1=O)CC[C@H]1[C@@H]3CC[C@](O)(C(=O)CO)[C@@]3(C)C[C@H](O)[C@@]12F` [2α-methyl-9α-fluoro-cortisol]: in experiment [1], the Class is 2 and the “Log 1/K” value was −5.797.
As to `CC1CC2(C)C(=CC1=O)CCC1C2C(O)CC2(C)C1CCC2(O)C(=O)CO` (stereo not drawn) [2α-methylcortisol], in experiment [1], the Class is reported as 1 and the “Log 1/K” value was −7.688.
Consider `C[C@]12CCC(=O)C=C1CC[C@@H]1[C@@H]2CC[C@]2(C)C(=O)CC[C@@H]12` [4-androstenedione], for which, in experiment [1], the Class is 3 and the “Log 1/K” value is given as −5.763.
Regarding `CC(=O)[C@H]1CC[C@H]2[C@@H]3CCC4=CC(=O)CC[C@]4(C)[C@H]3C(=O)C[C@]12C` [4-pregnene-3,11,20-trione], in experiment [1], the Class is 2 and the “Log 1/K” value is −6.779.
`C[C@]12CC[C@H]3[C@@H](CCC4=CC(=O)CC[C@@]43C)[C@@H]1CC[C@@H]2C(=O)CO` [11-deoxycorticosterone]: in experiment [1], the Class was 1 and the “Log 1/K” value is given as −7.653.
As for `C[C@]12CCC(=O)C=C1CC[C@@H]1[C@@H]2CC[C@@]2(C)[C@H]1CC[C@]2(O)C(=O)CO` [11-deoxycortisol], in experiment [1], the Class was 1 and the “Log 1/K” value is −7.881.
As for `CC(=O)[C@@]1(O)[C@H](O)C[C@H]2[C@@H]3CCC4=CC(=O)CC[C@]4(C)[C@H]3CC[C@@]21C` [16α,17α-dihydroxyprogesterone], in experiment [1], the Class was 2 and the “Log 1/K” value is −6.247.
Take `CC(=O)[C@H]1[C@H](C)C[C@H]2[C@@H]3CCC4=CC(=O)CC[C@]4(C)[C@H]3CC[C@@]21C` [16α-methylprogesterone]: in experiment [1], the Class is 1 and the “Log 1/K” value was −7.120.
In the case of `CC(=O)[C@@]1(O)CC[C@H]2[C@@H]3CC=C4C[C@@H](O)CC[C@]4(C)[C@H]3CC[C@@]21C` [17α-hydroxypregnenolone], in experiment [1], the Class was 3 and the “Log 1/K” value is given as −5.000.
For the molecule `CC(=O)[C@@]1(O)CC[C@H]2[C@@H]3CCC4=CC(=O)CC[C@]4(C)[C@H]3CC[C@@]21C` [17α-hydroxyprogesterone], in experiment [1], the Class is 1 and the “Log 1/K” value is −7.740.
For `CC(=O)[C@H]1CC[C@H]2[C@@H]3CCC4=CC(=O)CC[C@@H]4[C@H]3CC[C@]12C` [19-norprogesterone], in experiment [1], the Class is listed as 2 and the “Log 1/K” value is −6.817.
Regarding `C[C@]12CC[C@H]3[C@@H](CCC4=CC(=O)CC[C@@H]43)[C@@H]1CC[C@@H]2O` [19-nortestosterone], in experiment [1], the Class is 2 and the “Log 1/K” value is −6.144.
Consider `COC(=O)[C@@]1(O)CCC2C3CCC4=CC(=O)CC[C@]4(C)C3[C@@H](O)C[C@@]21C` (stereo partly drawn) [CA-Me GYKI-25806], for which, at transcortin (CBG) (setting [3]), the IC50 is 5.9 ± 1.4 nM.
Take `C[C@]12C=CC(=O)C=C1CC[C@@H]1[C@@H]2[C@@H](O)C[C@@]2(C)[C@H]1C[C@H]1O[C@@H](C3CCCCC3)O[C@]12C(=O)CO` [Ciclesonide, act. metab.]: the IC50 on transcortin (CBG) (setting [4]) is greater than 10000 nM.
Consider `C[C@@H]1C[C@H]2[C@@H]3CCC4=CC(=O)C=C[C@]4(C)[C@@]3(Cl)[C@@H](O)C[C@]2(C)[C@@]1(OC(=O)c1ccco1)C(=O)CCl` [Mometasone furoate], for which the concentration for half-maximal inhibition (IC50) at transcortin (CBG) (setting [4]) was greater than 10000 nM.
On to `C[C@]12C=CC(=O)C=C1CCC1C2[C@@H](O)C[C@@]2(C)C1CC[C@]2(O)C(=O)CO` (stereo partly drawn) [Prednisolone, prednisolone], for which the Class in experiment [1] was 1. Besides, the half-inhibitory concentration (IC50) at transcortin (CBG) (CBG Est. IC50 (nM), estimated, unpublished results Bodor, Kurucz 2006) is 7 nM; on transcortin (CBG) (IC50-values (nM) average ± SEM (n), 3 nM 3H-cortisol, 1 hour on ice, plasma diluted 100-fold) it was 6.7 ± 1.6 nM. Moreover, the “Vasoconstriction activity (total score of 4 tests)” value is 0 in experiment [2] (0.1 mM, 2 hr after removal, 4 h application); 0 in experiment [2] (0.1 mM, 4 hr after removal); 0 in experiment [2] (0.1 mM, 6 hr after removal); 0 in experiment [2] (0.1 mM, 8 hr after removal); 0 in experiment [2] (0.1 mM, 10 hr after removal); 0 in experiment [2] (0.1 mM, 16 hr after removal). Moreover, the “Vasoconstriction activity (total score of 4 tests)” value in experiment [2] (0.1 mM, 18 hr after removal) is given as 0; in experiment [2] (0.1 mM, 24 hr after removal) it was 0; in experiment [2] (1 mM, 2 hr after removal, 4 h application) it was 0; in experiment [2] (1 mM, 4 hr after removal) it was 0; in experiment [2] (1 mM, 6 hr after removal) it was 0; in experiment [2] (1 mM, 8 hr after removal), 0. In addition, the “Vasoconstriction activity (total score of 4 tests)” value in experiment [2] (1 mM, 10 hr after removal) is given as 0; in experiment [2] (1 mM, 16 hr after removal) it was 0; in experiment [2] (1 mM, 18 hr after removal) it was 0; in experiment [2] (1 mM, 24 hr after removal) it was 0. In addition, the “Vasoconstriction activity alone (in words)” value in experiment [2] (by itself, concentration range 0.1 to 1 mM, human skin, listed as PRN) is given as “do not yield any detectable activity; also recorded: no activity”.
Take `C[C@]12C=CC(=O)C=C1CCC1C2C(=O)C[C@@]2(C)C1CC[C@]2(O)C(=O)CO` (stereo partly drawn) [Prednisone, prednisone]: on transcortin (CBG) (setting [3]), the IC50 turned out to be 36 ± 11 nM.
`C[C@]12CCC(=O)C=C1CC[C@@H]1[C@@H]2[C@@H](O)C[C@]2(C=O)[C@@H](C(=O)CO)CC[C@@H]12` [aldosterone]: in experiment [1], the Class is 2 and the “Log 1/K” value is reported as −6.279.
Take `C[C@]12CCC(O)C[C@@H]1CC[C@@H]1[C@@H]2CC[C@]2(C)[C@@H](O)CC[C@@H]12` (stereo partly drawn) [androstanediol]: in experiment [1], the Class was 3 and the “Log 1/K” value is recorded as −5.000.
For the molecule `CCCC1O[C@@H]2C[C@H]3[C@@H]4CCC5=CC(=O)C=C[C@]5(C)[C@H]4[C@@H](O)C[C@]3(C)[C@]2(C(=O)CO)O1` (stereo partly drawn) [budesonide (BUD), budesonide], at transcortin (CBG) (setting [4]), the IC50 is greater than 10000 nM.
`CC(=O)OCC(=O)[C@@]1(O)CC[C@H]2[C@@H]3CCC4=CC(=O)CC[C@]4(C)[C@H]3[C@@H](O)C[C@@]21C` [cortisolacetat]: in experiment [1], the Class was 1 and the “Log 1/K” value is −7.553.
Consider `C[C@]12CCC(=O)C=C1CC[C@@H]1[C@@H]2C(=O)C[C@@]2(C)[C@H]1CC[C@]2(O)C(=O)CO` [cortisone], for which, in experiment [1], the Class was 2 and the “Log 1/K” value was −6.892.
For `C[C@]12CC[C@H](O)CC1=CC[C@@H]1[C@@H]2CC[C@]2(C)C(=O)CC[C@@H]12` [dehydroepiandrosterone], in experiment [1], the Class was 3 and the “Log 1/K” value is on record as −5.000.
As for `C[C@]12C[C@@H](O)[C@H]3[C@@H](CCC4=CC(=O)CC[C@@]43C)[C@@H]1CC[C@@H]2C(=O)CO` [epicorticosterone], in experiment [1], the Class was 1 and the “Log 1/K” value is reported as −7.200.
As to `C[C@]12CC[C@@H]3c4ccc(O)cc4CC[C@H]3[C@@H]1C[C@@H](O)[C@@H]2O` [estriol], in experiment [1], the Class is on record as 3 and the “Log 1/K” value is −5.000.
With `CC(=O)[C@H]1CC[C@H]2[C@@H]3CC=C4C[C@@H](O)CC[C@]4(C)[C@H]3CC[C@]12C` [pregnenolone], in experiment [1], the Class is listed as 3 and the “Log 1/K” value is on record as −5.225.
As for `CC(=O)[C@H]1CC[C@H]2[C@@H]3CCC4=CC(=O)CC[C@]4(C)[C@H]3CC[C@]12C` [progesterone], in experiment [1], the Class is listed as 1 and the “Log 1/K” value is listed as −7.380.
As for `C[C@]12CC[C@H]3[C@@H](CCC4=CC(=O)CC[C@@]43C)[C@@H]1CC[C@@H]2O` [testosterone], in experiment [1], the Class was 2 and the “Log 1/K” value was −6.724.
